Laboratory results: ChEMBL document CHEMBL1201862, “PubChem BioAssay data set” (2004)
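Dose response: 5 concentrations. Exposure: 48 h. Format: 96-well plates. Endpoint: linear interpolation; highest concentration if not reached. At the GI50, growth is halved.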 Activity calls are given as the source filed them. Rule as the data show it: active = GI50 up to about 1.1 µM and inactive = higher.

Assays:
Assay in all cases: growth of human tumour cells (NCI), 48 h
HOP-18 = tested on: HOP-18
MCF7 = tested on: MCF7
M19-MEL = tested on: M19-MEL
NCI-H226 = tested on: NCI-H226
NCI/ADR-RES = tested on: NCI/ADR-RES
XF498 = tested on: XF498
CAKI-1 = tested on: CAKI-1
LOX IMVI = tested on: LOX IMVI
DMS-273 = tested on: DMS-273
HCT-15 = tested on: HCT-15
SNB-78 = tested on: SNB-78
KM-20L2 = tested on: KM-20L2
DLD-1 = tested on: DLD-1
A498 = tested on: A498
ACHN = tested on: ACHN
LXFL 529 = tested on: LXFL 529
M14 = tested on: M14
TK-10 = tested on: TK-10
SR = tested on: SR
DU-145 = tested on: DU-145

| SMILES | GI50 (HOP-18) | GI50 (MCF7) | GI50 (M19-MEL) | GI50 (NCI-H226) | GI50 (NCI/ADR-RES) | GI50 (XF498) | GI50 (CAKI-1) | GI50 (LOX IMVI) | GI50 (DMS-273) | GI50 (HCT-15) [µM] | GI50 (SNB-78) | GI50 (KM-20L2) | GI50 (DLD-1) | GI50 (A498) | GI50 (ACHN) | GI50 (LXFL 529) | GI50 (M14) | GI50 (TK-10) | GI50 (SR) | GI50 (DU-145) |
| --- | --- | --- | --- | --- | --- | --- | --- | --- | --- | --- | --- | --- | --- | --- | --- | --- | --- | --- | --- | --- |
| CC1=NN(C(=O)c2ccc(C)cc2)C(=O)C1/N=N/c1ccccc1C(=O)O (centres undefined) | > 100 µM (inactive) | > 100 µM (inactive) | > 100 µM (inactive) | > 100 µM (inactive) | > 100 µM (inactive) | 61.8 µM (inactive) | > 100 µM (inactive) | > 100 µM (inactive) | > 100 µM (inactive) | 52.6 | > 94 µM (inactive) | > 100 µM (inactive) | > 100 µM (inactive) |  |  |  |  |  |  |  |
| COc1cc2cc[n+]3c(C)c4cc(OC)c(OC)cc4c([O-])c3c2cc1OC |  |  | 46.6 µM (inactive) | 33.1 µM (inactive) |  | 22.1 µM (inactive) | > 100 µM (inactive) |  | 53.6 µM (inactive) | > 100 | > 100 µM (inactive) | 53.2 µM (inactive) | > 100 µM (inactive) | > 100 µM (inactive) | > 100 µM (inactive) | 40.1 µM (inactive) | > 100 µM (inactive) | > 100 µM (inactive) | 61 µM (inactive) |  |
| COc1ccc(/C=N/n2cnc3c(c2=O)SC(=C(C#N)C#N)N3c2ccccc2)cc1 | 50.7 µM (inactive) |  | > 100 µM (inactive) | > 100 µM (inactive) |  |  |  |  |  |  |  |  | > 100 µM (inactive) |  | > 100 µM (inactive) | > 100 µM (inactive) |  | > 100 µM (inactive) | > 100 µM (inactive) |  |
| CCOC(=O)C1=C(C)N(C2OC(COC(C)=O)C(OC(C)=O)C(OC(C)=O)C2OC(C)=O)C(=O)NC1c1ccccc1 (centres undefined) | > 100 µM (inactive) |  | > 100 µM (inactive) | > 100 µM (inactive) |  |  | 83.9 µM (inactive) | > 100 µM (inactive) |  | > 100 | > 100 µM (inactive) | > 100 µM (inactive) | > 100 µM (inactive) | > 100 µM (inactive) | > 100 µM (inactive) | > 100 µM (inactive) | > 100 µM (inactive) |  | > 100 µM (inactive) |  |
| COc1cc(C(O)(CC#N)c2cc3c(cc2Br)OCO3)cc(OC)c1OC (centres undefined) |  | 14.7 µM (inactive) |  | 30.8 µM (inactive) | 40 µM (inactive) |  | 29.1 µM (inactive) | 31.3 µM (inactive) |  |  |  |  |  |  | 92.7 µM (inactive) |  | 4.62 µM (inactive) | 42.8 µM (inactive) |  | 33.5 µM (inactive) |
| CSc1cc(=O)n2c3ccccc3c3ccnc1c32 |  | 34.6 µM (inactive) | > 100 µM (inactive) | 14.2 µM (inactive) | 73.8 µM (inactive) |  |  | > 100 µM (inactive) | 79.6 µM (inactive) | 39.7 | > 70.8 µM (inactive) | > 61.8 µM (inactive) | 49.7 µM (inactive) | > 91.4 µM (inactive) |  |  |  |  |  |  |
| CCOC(=O)c1ccc(N2C(=O)/C(=C/c3ccc(N(CCC#N)CCC#N)cc3)N=C2c2cc([N+](=O)[O-])ccc2Cl)cc1 | > 100 µM (inactive) |  | > 100 µM (inactive) | > 100 µM (inactive) |  |  | > 100 µM (inactive) | > 100 µM (inactive) | > 100 µM (inactive) | > 100 | > 100 µM (inactive) | > 100 µM (inactive) | > 100 µM (inactive) |  | > 100 µM (inactive) | > 100 µM (inactive) |  | > 100 µM (inactive) | > 100 µM (inactive) |  |
